Target: T1, Human CaV2.2 channels (Homo sapiens, UniProt Q00975)
T1 construct: expressed in transfected cells; also stably expressing Kir2.3)
Test: Fluorescence assay for CaV2.2 channels using potassium depolarization to induce channel opening (FLIPR, Fluo 4)
Assay type: cell-based
Conditions: 30 mM KCl assay buffer (inactivated channel state), HEK293 cells; for inhibition at 3 µM: HEK293, 3 μM test compound, read-out: Activity Category: %-Inhib (CaV2.2) @3 μM @30 mM KCl; for Activity Category: %-Inhib (CaV2.2) @3 μM @30 mM KCl: 3 μM test compound
Text: In the process, the Ca^2+ influx is quantified in the FLIPR assay with the aid of a Ca^2+-sensitive dye (type Fluo-4, Molecular Probes Europe BV, Leiden, the Netherlands) in a fluorescent imaging plate reader (FLIPR 3, Molecular Devices, Sunnyvale, USA), as described hereinafter.
[drawing 69] 2. Assay Descriptions and Biological Data: 2.1 Fluorescence Assay for CaV2.2 Channels Using Potassium Depolarization to Induce Channel Opening
Human CaV2.2 channels were stably expressed in HEK293 cells together with alpha2-delta and beta subunits of voltage gated calcium channels. In addition, an inwardly rectifying potassium channel (Kir2.3) was stably expressed in these cells to augment control of the cell membrane potential by the concentration of extracellular potassium ions. Raise of the extracellular potassium concentration leads to depolarization of the membrane potential and thus regulates the voltage dependent state of CaV2.2 channels. For preparation, cells were seeded in black poly-D-lysine coated 96-well plates (Becton Dickinson, Biocoat 4640) in 100 μL medium [500 mL DMEM/F-12 plus Glutamax (Invitrogen 31331-093) plus 5.5 mL MEM NEAA 100× (Invitrogen 11140-035) plus 50 mL FBS decomplemented (Invitrogen 10270-106) plus 200 μg/mL Geneticin (Invitrogen 10131-027) plus 50 μg/mL Hygromycin B (Invitrogen 10687-010) plus 2 μg/mL Blasticidin (anti-b15b Invivo-Gen) plus 0.2 μg/mL Puromycin (A 11138-03)] at a cell density of 30.000 cells per well. Plates were incubated at 37° C. (5% CO2) for 20 to 23 h. On the day of experiment medium was discarded and cells were loaded with Fluo 4 by addition of 100 μL of basic assay buffer (10 mM HEPES, 1 mM KCl, 149 mM NaCl, 0.8 mM CaCl2, 1.7 mM MgCl2, 10 mM Glucose, 0.1% BSA. pH 7.4) containing 2 μM Fluo 4 (Molecular Probes; F-14201), 0.01% pluronic acid (Molecular Probes; P-6866) and 2.5 mM probenecid (Molecular Probes; P36400). Cells were incubated in the dark at 25° C. for 60 min. Then dye containing buffer was discarded and 100 μL basic (1 mM KCl) or alternative (30 mM KCl) assay buffer was added. The alternative assay buffer contained altered concentrations of KCl (30 mM) and NaCl (120 mM) and was used in order to promote the inactivated channel state. After that 25 μL of basic or alternative assay buffer with or without test compound were added and cells were incubated again in the dark at 25° C. for 15 min. Fluorescence intensity was measured on a FLIPR 3 instrument (Molecular Devices Corp., Sunnyvale, Calif.) with excitation at 480 nm and emission at 535 nm. After continuously reading fluorescence for 30 sec, 50 μL of basic assay buffer containing 210 mM KCl(NaCl omitted) were added for depolarization. Peak fluorescent signal intensity was determined and the amplitude of the peak signal, normalized to base line, was used to measure channel inhibition by test compounds.

T1 sequence (Q00975 whole entry): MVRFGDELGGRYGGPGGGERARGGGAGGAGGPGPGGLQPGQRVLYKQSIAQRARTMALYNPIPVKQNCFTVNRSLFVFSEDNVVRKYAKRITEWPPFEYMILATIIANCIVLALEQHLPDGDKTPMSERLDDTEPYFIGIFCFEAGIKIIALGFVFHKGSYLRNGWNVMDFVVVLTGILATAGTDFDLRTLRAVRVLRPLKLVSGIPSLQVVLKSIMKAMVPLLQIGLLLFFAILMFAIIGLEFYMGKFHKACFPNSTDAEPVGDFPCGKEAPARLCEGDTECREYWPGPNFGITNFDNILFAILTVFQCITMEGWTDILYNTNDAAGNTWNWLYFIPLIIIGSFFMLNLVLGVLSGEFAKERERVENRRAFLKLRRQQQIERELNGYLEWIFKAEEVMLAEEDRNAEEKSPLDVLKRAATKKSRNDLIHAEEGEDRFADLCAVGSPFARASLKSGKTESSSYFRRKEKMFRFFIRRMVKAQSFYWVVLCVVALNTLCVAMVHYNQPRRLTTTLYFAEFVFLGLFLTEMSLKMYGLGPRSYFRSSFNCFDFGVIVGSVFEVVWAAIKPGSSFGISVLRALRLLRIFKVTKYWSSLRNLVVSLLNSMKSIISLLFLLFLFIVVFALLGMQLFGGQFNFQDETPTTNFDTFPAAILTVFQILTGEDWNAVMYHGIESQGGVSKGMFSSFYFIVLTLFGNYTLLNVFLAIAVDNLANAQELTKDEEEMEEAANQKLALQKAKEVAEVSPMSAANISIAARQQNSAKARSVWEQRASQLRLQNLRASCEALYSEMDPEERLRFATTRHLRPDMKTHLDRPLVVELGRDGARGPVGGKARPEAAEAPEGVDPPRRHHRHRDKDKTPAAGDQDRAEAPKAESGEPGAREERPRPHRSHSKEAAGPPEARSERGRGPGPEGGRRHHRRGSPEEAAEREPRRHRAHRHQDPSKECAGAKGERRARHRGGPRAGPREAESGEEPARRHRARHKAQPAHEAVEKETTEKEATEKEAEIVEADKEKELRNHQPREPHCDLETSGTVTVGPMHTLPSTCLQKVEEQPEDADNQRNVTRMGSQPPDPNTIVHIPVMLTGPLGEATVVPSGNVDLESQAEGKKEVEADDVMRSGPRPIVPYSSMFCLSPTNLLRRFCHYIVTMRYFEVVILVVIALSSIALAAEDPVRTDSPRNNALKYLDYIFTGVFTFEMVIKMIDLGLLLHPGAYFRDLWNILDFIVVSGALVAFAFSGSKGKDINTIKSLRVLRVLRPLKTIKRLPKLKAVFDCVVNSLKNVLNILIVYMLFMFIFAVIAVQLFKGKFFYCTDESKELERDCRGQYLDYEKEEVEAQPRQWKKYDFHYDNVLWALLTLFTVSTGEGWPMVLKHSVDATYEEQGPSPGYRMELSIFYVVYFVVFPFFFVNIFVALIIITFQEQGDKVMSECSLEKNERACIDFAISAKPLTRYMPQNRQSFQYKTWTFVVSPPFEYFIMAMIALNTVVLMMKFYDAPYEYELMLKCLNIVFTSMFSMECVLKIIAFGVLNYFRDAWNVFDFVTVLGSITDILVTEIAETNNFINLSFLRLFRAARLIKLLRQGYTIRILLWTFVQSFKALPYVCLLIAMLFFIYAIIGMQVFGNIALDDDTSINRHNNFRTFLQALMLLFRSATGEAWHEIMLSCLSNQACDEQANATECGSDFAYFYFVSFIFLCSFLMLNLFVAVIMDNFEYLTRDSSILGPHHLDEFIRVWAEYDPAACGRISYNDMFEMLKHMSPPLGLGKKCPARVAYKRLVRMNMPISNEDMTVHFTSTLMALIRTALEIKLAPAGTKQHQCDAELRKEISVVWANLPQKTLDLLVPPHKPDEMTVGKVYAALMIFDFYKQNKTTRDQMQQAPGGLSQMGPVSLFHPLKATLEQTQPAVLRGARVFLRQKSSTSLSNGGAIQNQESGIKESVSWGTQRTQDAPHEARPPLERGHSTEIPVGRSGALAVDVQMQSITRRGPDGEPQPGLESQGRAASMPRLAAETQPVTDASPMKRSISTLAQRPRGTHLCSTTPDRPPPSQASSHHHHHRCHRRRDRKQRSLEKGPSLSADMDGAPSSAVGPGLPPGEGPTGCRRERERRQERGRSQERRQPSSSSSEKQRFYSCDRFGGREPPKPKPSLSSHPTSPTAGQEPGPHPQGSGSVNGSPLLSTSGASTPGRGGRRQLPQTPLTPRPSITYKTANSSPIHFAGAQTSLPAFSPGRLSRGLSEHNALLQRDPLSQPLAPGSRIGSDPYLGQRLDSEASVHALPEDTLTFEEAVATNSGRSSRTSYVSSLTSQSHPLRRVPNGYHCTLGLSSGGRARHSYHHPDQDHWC

For `CC1(S(=O)(=O)c2cccc(C(F)(F)F)c2)CCOC(c2cc(CC(F)(F)F)n[nH]2)C1` (racemic) [Example 15 cis-rac, 5-[4-Methyl-4-[[3-(trifluoromethyl)phenyl]sulfonyl]-tetrahydro-pyran-2-yl]-3-(2,2,2-trifluoro-ethyl)-1H-pyrazole], the inhibition at 3 µM was over 95%.
`C[C@@]1(S(=O)(=O)c2cccc(C(F)(F)F)c2)CCO[C@@H](c2cc(S(=O)(=O)C(F)F)n[nH]2)C1` (racemic) [[trans-rac] Example 1, 3-(Difluoro-methylsulfonyl)-5-[4-methyl-4-[[3-(trifluoromethyl)phenyl]sulfonyl]-tetrahydro-pyran-2-yl]-1H-pyrazole] gave an inhibition at 3 µM of 75 to 95%.
With `CC1(S(=O)(=O)c2cccc(C(F)(F)F)c2)CCOC(c2cc(C(F)F)[nH]n2)C1` (racemic) [[trans-rac] Example 12, 5-(Difluoro-methyl)-3-[4-methyl-4-[[3-(trifluoromethyl)phenyl]sulfonyl]-tetrahydro-pyran-2-yl]-1H-pyrazole] the inhibition at 3 µM was 75 to 95%.
`CC1(S(=O)(=O)c2cccc(C(F)(F)F)c2)CCOC(c2cc(S(=O)(=O)CC(F)F)n[nH]2)C1` (stereo not drawn) [Example 3 cis-EN1, 3-(2,2-Difluoro-ethylsulfonyl)-5-[4-methyl-4-[[3-(trifluoromethyl)phenyl]sulfonyl]-tetrahydro-pyran-2-yl]-1H-pyrazole] showed an inhibition at 3 µM of 30 to 40%.
In the case of `CC1(S(=O)(=O)c2cccc(C(F)(F)F)c2)CCOC(c2cc(S(=O)(=O)C3COC3)n[nH]2)C1` (stereo not drawn) [Example 4 cis-EN1, 5-[4-Methyl-4-[[3-(trifluoromethyl)phenyl]sulfonyl]-tetrahydro-pyran-2-yl]-3-(oxetan-3-ylsulfonyl)-1H-pyrazole], the “Activity Category: %-Inhib (CaV2.2) @3 μM @30 mM KCl” value (“Activity Category: %-Inhib” below) (listed as 4 cis-EN1) was “C (%-Inhibition >40% up to ≤75%)”.
`CC1(S(=O)(=O)c2cccc(C(F)(F)F)c2)CCOC(c2cc(S(=O)(=O)C3COC3)n[nH]2)C1` (stereo not drawn) [Example 4 cis-EN2, 5-[4-Methyl-4-[[3-(trifluoromethyl)phenyl]sulfonyl]-tetrahydro-pyran-2-yl]-3-(oxetan-3-ylsulfonyl)-1H-pyrazole] was tested, and the “Activity Category: %-Inhib” value (listed as 4 cis-EN2) was “B (%-Inhibition >75% up to ≤95%)”.
For `COCCS(=O)(=O)c1cc(C2CC(C)(S(=O)(=O)c3cccc(C(F)(F)F)c3)CCO2)[nH]n1` (stereo not drawn) [Example 5 cis-EN1, 3-(2-Methoxy-ethylsulfonyl)-5-[4-methyl-4-[[3-(trifluoromethyl)phenyl]sulfonyl]-tetrahydro-pyran-2-yl]-1H-pyrazole], the “Activity Category: %-Inhib” value (listed as 5 cis-EN1) was “B (%-Inhibition >75% up to ≤95%)”.
For `COCCS(=O)(=O)c1cc(C2CC(C)(S(=O)(=O)c3cccc(C(F)(F)F)c3)CCO2)[nH]n1` (stereo not drawn) [Example 5 cis-EN2, 3-(2-Methoxy-ethylsulfonyl)-5-[4-methyl-4-[[3-(trifluoromethyl)phenyl]sulfonyl]-tetrahydro-pyran-2-yl]-1H-pyrazole], the “Activity Category: %-Inhib” value (listed as 5 cis-EN2) was “C (%-Inhibition >40% up to ≤75%)”.
In the case of `CC(C)(c1cc(C2CC(C)(S(=O)(=O)c3cccc(C(F)(F)F)c3)CCO2)[nH]n1)S(C)(=O)=O` (stereo not drawn) [Example 7 cis-EN1, 3-(1-Methyl-1-methylsulfonyl-ethyl)-5-[4-methyl-4-[[3-(trifluoromethyl)phenyl]sulfonyl]-tetrahydro-pyran-2-yl]-1H-pyrazole], the inhibition at 3 µM was 75 to 95%.
Work on `CC1(S(=O)(=O)c2cccc(C(F)(F)F)c2)CCOC(c2cc(CCS(C)(=O)=O)n[nH]2)C1` (stereo not drawn) [Example 9 cis-EN1, 3-(2-Methylsulfonyl-ethyl)-5-[4-methyl-4-[[3-(trifluoromethyl)phenyl]sulfonyl]-tetrahydro-pyran-2-yl]-1H-pyrazole] yielded an inhibition at 3 µM of 40 to 75%.
For `CC(F)(F)c1cc(C2CC(C)(S(=O)(=O)c3cccc(C(F)(F)F)c3)CCO2)[nH]n1` (stereo not drawn) [Example 13 cis-EN1, 3-(1,1-Difluoro-ethyl)-5-[4-methyl-4-[[3-(trifluoromethyl)phenyl]sulfonyl]-tetrahydro-pyran-2-yl]-1H-pyrazole], the inhibition at 3 µM was over 95%.
`CC1(S(=O)(=O)c2cccc(C(F)(F)F)c2)CCOC(c2cc(CC(F)F)n[nH]2)C1` (stereo not drawn) [Example 14 cis-EN1, 3-(2,2-Difluoro-ethyl)-5-[4-methyl-4-[[3-(trifluoromethyl)phenyl]sulfonyl]-tetrahydro-pyran-2-yl]-1H-pyrazole] was tested, and the inhibition at 3 µM was 75 to 95%.
In the case of `CC1(S(=O)(=O)c2cccc(C(F)(F)F)c2)CCOC(c2cc(CC(F)F)n[nH]2)C1` (stereo not drawn) [Example 14 cis-EN2, 3-(2,2-Difluoro-ethyl)-5-[4-methyl-4-[[3-(trifluoromethyl)phenyl]sulfonyl]-tetrahydro-pyran-2-yl]-1H-pyrazole], the “Activity Category: %-Inhib” value was “A (%-Inhibition >95%)”.
`CC1(S(=O)(=O)c2cccc(C(F)(F)F)c2)CCOC(c2cc(OCC(F)(F)F)n[nH]2)C1` (stereo not drawn) [Example 16 cis-EN2, 5-[4-Methyl-4-[[3-(trifluoromethyl)phenyl]sulfonyl]-tetrahydro-pyran-2-yl]-3-(2,2,2-trifluoro-ethoxy)-1H-pyrazole] gave an inhibition at 3 µM of over 95%.
For `CC1(S(=O)(=O)c2cccc(C(F)(F)F)c2)CCOC(c2cc(C3(O)COC3)n[nH]2)C1` (stereo not drawn) [Example 18 cis-EN1, 3-[5-[4-Methyl-4-[[3-(trifluoromethyl)phenyl]sulfonyl]-tetrahydro-pyran-2-yl]-1H-pyrazol-3-yl]-oxetan-3-ol], the inhibition at 3 µM was 40 to 75%.
In the case of `CC(C)(O)c1cc(C2CC(C)(S(=O)(=O)c3cccc(C(F)(F)F)c3)CCO2)[nH]n1` (stereo not drawn) [Example 19 cis-EN1, 2-[5-[4-Methyl-4-[[3-(trifluoromethyl)phenyl]sulfonyl]-tetrahydro-pyran-2-yl]-1H-pyrazol-3-yl]-propan-2-ol], the “Activity Category: %-Inhib” value (listed as 19 cis-EN1) was “B (%-Inhibition >75% up to ≤95%)”.
`CC(C)(O)c1cc(C2CC(C)(S(=O)(=O)c3cccc(C(F)(F)F)c3)CCO2)[nH]n1` (stereo not drawn) [Example 19 cis-EN2, 2-[5-[4-Methyl-4-[[3-(trifluoromethyl)phenyl]sulfonyl]-tetrahydro-pyran-2-yl]-1H-pyrazol-3-yl]-propan-2-ol] was tested, and the “Activity Category: %-Inhib” value (listed as 19 cis-EN2) was “C (%-Inhibition >40% up to ≤75%)”.
Work on `CC1(S(=O)(=O)c2cccc(C(F)(F)F)c2)CCOC(c2cc(S(=O)(=O)C(F)(F)F)n[nH]2)C1` (stereo not drawn) [Example 27 cis-EN1, 3-(Trifluoro-methylsulfonyl)-5-[4-methyl-4-[[3-(trifluoromethyl)phenyl]sulfonyl]-tetrahydro-pyran-2-yl]-1H-pyrazole] yielded an inhibition at 3 µM of over 95%.
In the case of `CC1(S(=O)(=O)c2cccc(C(F)(F)F)c2)CCOC(c2cc(S(=O)(=O)C(F)(F)F)n[nH]2)C1` (stereo not drawn) [Example 27 cis-EN2, 3-(Trifluoro-methylsulfonyl)-5-[4-methyl-4-[[3-(trifluoromethyl)phenyl]sulfonyl]-tetrahydro-pyran-2-yl]-1H-pyrazole], the “Activity Category: %-Inhib” value was “B (%-Inhibition >75% up to ≤95%)”.
In the case of `CC1(S(=O)(=O)c2cccc(C(F)(F)F)c2)CCOC(c2cc(CS(=O)(=O)C(F)F)n[nH]2)C1` (stereo not drawn) [Example 28 cis-EN1, 3-[(Difluoro-methylsulfonyl)-methyl]-5-[4-methyl-4-[[3-(trifluoromethyl)phenyl]sulfonyl]-tetrahydro-pyran-2-yl]-1H-pyrazole], the inhibition at 3 µM was 75 to 95%.
`CC1(S(=O)(=O)c2cccc(C(F)(F)F)c2)CCOC(c2cc(S(=O)(=O)CC(F)(F)F)n[nH]2)C1` (stereo not drawn) [Example 29 cis-EN1, 5-[4-Methyl-4-[[3-(trifluoromethyl)phenyl]sulfonyl]-tetrahydro-pyran-2-yl]-3-(2,2,2-trifluoro-ethylsulfonyl)-1H-pyrazole] showed an inhibition at 3 µM of 75 to 95%.

Source: patent US10106530B2, “Pyrazolyl substituted tetrahydropyranylsulfones” (GRÜNENTHAL GMBH, priority 2015, dated 2018)
